From ChEMBL document CHEMBL1255527, “Structure-activity relationships of tulipalines, tuliposides, and related compounds as inhibitors of MurA” (Bioorg Med Chem Lett, 2010)
In brackets after ≈: the same amount, converted by molar mass. Activity calls are given as the source filed them. The calls are words filed in the database; no cut-off is given here.

Columns and labels:
[1] = tested on: Escherichia coli; assay: Antimicrobial activity against Escherichia coli BL21 assessed as growth inhibition at 200 uM after 24 hrs; assay type: functional; conditions: for inhibition at 200 µM: BL21, BL21, 24 h
[2] = tested on: Escherichia coli BL21; assay: Inhibition of Escherichia coli MurA; parameters: concentration or dose not given beside the values
[3] = tested on: Escherichia coli; assay: Antimicrobial activity against Escherichia coli BL21 assessed as growth inhibition at 200 uM in presence of minimum medium; assay type: functional
[4] = tested on: Escherichia coli BL21 [C115D]; assay: Inhibition of Escherichia coli MurA C115D mutant at 25 uM
[5] = Inhibition of Escherichia coli MurA at 25 uM; parameters: species or system Escherichia coli BL21
[6] = Electrophilicity, glutathione reactivity of the compound assessed as half life; assay type: physicochemical; conditions: glutathione (reaction with glutathione)
[7] = tested on: Escherichia coli; assay: Antimicrobial activity against Escherichia coli BL21 expressing MurA C115D mutant assessed as growth inhibition at 200 uM after 20 hrs in presence of kanamycin and 0.5 mM IPTG; assay type: functional
[8] = tested on: Escherichia coli; assay: Antimicrobial activity against Escherichia coli BL21 expressing MurA C115D mutant assessed as growth inhibition at 200 uM after 20 hrs in presence of kanamycin and 1 mM IPTG; assay type: functional
[9] = tested on: Escherichia coli; assay: Antimicrobial activity against Escherichia coli BL21 assessed as growth inhibition at 200 uM in presence of IPTG; assay type: functional
[10] = tested on: Escherichia coli; assay: Antimicrobial activity against Escherichia coli BL21 expressing MurA C115D mutant assessed as growth inhibition at 200 uM in presence of kanamycin; assay type: functional
[11] = tested on: Escherichia coli; assay: Antimicrobial activity against Escherichia coli BL21 after 24 hrs; assay type: functional; conditions: BL21, 24 h

Row | SMILES | inhibition ([2]; concentration not given here) [%] | inhibition [4] | inhibition [2] | IC50 [5] [µM] | inhibition at 200 µM [1] [%] | inhibition at 200 µM [3] [%] | inhibition [1] | inhibition [3] | half-life [6] [h] | Activity [7] | Activity [8] | Activity [9] | Activity [10] | MBC [11] [µM] | MIC [11] [µM]
1 | C=C1CC(COC(C)=O)OC1=O (centres undefined) |  | inactive | inactive |  |  | 74 | inactive |  |  |  |  |  |  |  | 
2 | C=C1C(=O)OC(CBr)C1O (centres undefined) | 85 | 18% |  | 10.4 | 84 | 103 |  |  |  |  |  |  |  |  | 
3 | C=C(CP(=O)(O)O)C(=O)O | 13 | inactive |  |  |  |  | inactive | inactive |  |  |  |  |  |  | 
4 | C=C1C(=O)OCC1O (racemic) [(+/-)-TULIPALINE B] | 97 | inactive |  | 2 | 62 | 93 |  |  |  | inactive | inactive | inactive | inactive | 200 (≈ 22.8 µg/mL) | 12.5 (≈ 1.43 µg/mL)
5 | C=C(C(=O)O)C(O)CO (centres undefined) | 87 | inactive |  | 8.6 | 18 | 100 |  |  | < 7 | inactive | inactive | inactive | inactive | 25 (≈ 3.3 µg/mL) | 1.56 (≈ 0.206 µg/mL)
6 | C=C1C(=O)OC(CO)C1O (centres undefined) | 74 | inactive |  | 6.6 | 26 | 102 |  |  |  |  |  |  |  |  | 
7 | C=C(CP(=O)(O)O)C(=O)OC |  | inactive | inactive |  |  |  | inactive | inactive |  |  |  |  |  |  | 
8 | C=C1CC(CO)OC1=O (centres undefined) | 17 | inactive |  |  |  | 47 | inactive |  |  |  |  |  |  |  | 
9 | C=C1C(=O)O[C@@H]2/C=C(\CO)CC/C=C(\C)C[C@H](OC(=O)C(=C)[C@H](O)CO)[C@@H]12 [CNICIN] | 97 | inactive |  | 16.7 | 19 | 92 |  |  |  | inactive | inactive | inactive | inactive | 200 (≈ 75.7 µg/mL) | 25 (≈ 9.46 µg/mL)
10 | C[C@@H]1O[C@@H]1P(=O)(O)O [FOSFOMYCIN] | 99 | inactive |  | 0.1 | 100 | 96 |  |  | > 60 | Active | Active | inactive | inactive | 200 (≈ 27.6 µg/mL) | 50 (≈ 6.9 µg/mL)
11 | C=C(CP(=O)(OCC)OCC)C(=O)OC | 20 | inactive |  |  |  |  | inactive | inactive |  |  |  |  |  |  | 
12 | C=C1CCOC1=O [TULIPALINE A] |  | inactive | inactive |  | 5 |  |  | inactive |  |  |  |  |  |  | 
13 | C=C(CCO)C(=O)O[C@@H]1O[C@H](CO)[C@@H](O)[C@H](O)[C@H]1O | 11 | inactive |  |  |  |  | inactive | inactive |  |  |  |  |  |  | 

Continued, in another order:

Row | inhibition ([2]; concentration not given here) [%] | inhibition [4] | inhibition [2] | IC50 [5] [µM] | SMILES | inhibition at 200 µM [1] [%] | inhibition at 200 µM [3] [%] | inhibition [1] | inhibition [3] | half-life [6] [h] | Activity [7] | Activity [8] | Activity [9] | Activity [10] | MBC [11] [µM] | MIC [11] [µM]
14 | 55 | inactive |  |  | C=C(CBr)C(=O)OC [METHYL BROMOMETHYL ACRYLATE] | 20 | 101 |  |  |  |  |  |  |  |  | 
15 |  | inactive | inactive |  | C=C(CCO)C(=O)O |  |  |  | inactive |  |  |  |  |  |  | 
16 |  | inactive | inactive |  | C=C(C(=O)O)C(O)C(O)CO (centres undefined) |  |  | inactive | inactive |  |  |  |  |  |  | 
17 | 79 | 10% |  | 4.5 | C=C(C(=O)OC)C(OC(C)=O)C(O)CO (centres undefined) | 30 | 98 |  |  |  |  |  |  |  |  | 
18 |  | inactive | inactive |  | C=C(CO)C(=O)O |  |  | inactive | inactive | > 60 |  |  |  |  |  | 
19 |  | inactive | inactive |  | C=C(CO)C(=O)OC |  |  | inactive | inactive |  |  |  |  |  |  | 
20 |  | inactive | inactive |  | C=C(C(=O)OC)C(O)C1COC(C)(C)O1 (centres undefined) |  |  | inactive | inactive |  |  |  |  |  |  | 
21 | 84 | inactive |  | 5 | C=C(C(=O)O[C@@H]1O[C@H](CO)[C@@H](O)[C@H](O)[C@H]1O)[C@@H](O)CO [1-TULIPOSIDE B] | 64 | 97 |  |  |  |  |  |  |  | 50 (≈ 14.7 µg/mL) | 6.25 (≈ 1.84 µg/mL)
22 | 77 | 10% |  | 6.3 | C=C(C(=O)OC)C(O)C(O)CO (centres undefined) | 17 |  |  |  |  |  |  |  |  |  | 
